The target in one test is RIPK1 (Homo sapiens (Human), UniProt Q13546). Kind of test: ADP-Glo kinase assay (RIPK1 activity, conversion of ATP to ADP). The test is classed as biochemical. Particulars: for IC50: 5 nM RIPK1, 50 μM ATP, 6 h reaction, read-out: RIPK1 Enzyme Avg IC50. The method in brief:
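RIPK1 (5 nM final) was preincubated 10 min at rt with 1:3-diluted compounds in HEPES pH 7.5/MgCl2/DTT/BSA/CHAPS buffer. ATP (50 μM final) was then added for 6 h, and ADP formed was read by ADP-Glo luminescence. IC50 values came from four-parameter logistic fitting.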
A general note: ADP-Glo turns the ADP formed in a reaction into a luminescent signal.

For test [1], the system named is human monocytic cell line U937. Kind of test: Human U937 cellular necroptosis assay (TNFalpha + z-VAD-FMK, Cell Titer-Glo viability). Particulars: Homo sapiens, U-937, 22 h, U937 cells, 25 ng/mL human TNFalpha + 25 μM z-VAD-FMK, read-out: hU937 Avg IC50. It counts as cell-based. The method, boiled down:
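Readout is CellTiter-Glo 2.0 luminescence after 22 h at 37° C with compound, in cells triggered by human TNFalpha (25 ng/mL) and z-VAD-FMK (25 μM) in phenol red-free RPMI/10% FBS. Values are run-averaged IC50s from a four-parameter logistic curve.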
On the technique in general: In ATP-based viability assays light output follows the ATP content of the culture.

Each structure is given as a SMILES string.

Chain of RIPK1 (Q13546 1-327): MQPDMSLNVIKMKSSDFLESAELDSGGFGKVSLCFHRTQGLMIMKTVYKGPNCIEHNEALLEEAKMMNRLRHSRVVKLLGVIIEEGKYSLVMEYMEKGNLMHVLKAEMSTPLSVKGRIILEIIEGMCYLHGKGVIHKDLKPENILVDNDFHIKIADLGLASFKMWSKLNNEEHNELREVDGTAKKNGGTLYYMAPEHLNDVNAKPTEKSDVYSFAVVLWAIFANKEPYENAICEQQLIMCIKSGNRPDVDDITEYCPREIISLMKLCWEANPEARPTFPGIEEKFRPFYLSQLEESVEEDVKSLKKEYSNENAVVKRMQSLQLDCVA

One may read the IC50 as the concentration needed to halve the response being measured. For the molecule `Cc1nn(CC23CC(C(=O)N4N=CCC4c4cc(F)cc(F)c4)(C2)C3)c2ccccc12` (centres unmarked) [Example 153, (5-(3,5-difluorophenyl)-4,5-dihydro-1H-pyrazol-1-yl)(3-((3-methyl-1H-indazol-1-yl)-methyl)bicyclo[1.1.1]pentan-1-yl)methanone], the IC50 on RIPK1 is 204 nM; in test [1] it was 553 nM.
On to `O=C(N1N=CCC1c1cc(F)cc(F)c1)C12CC(Cn3ccc4cncnc43)(C1)C2` (centres unmarked) [Example 136, (3-((7H-pyrrolo[2,3-d]-pyrimidin-7-yl)methyl)-bicyclo[1.1.1]pentan-1-yl)(5-(3,5-difluorophenyl)-4,5-dihydro-1H-pyrazol-1-yl)-methanone], for which the values for the concentration for half-maximal inhibition (IC50) (at RIPK1; in test [1]) were 20 nM and 58 nM, respectively.
The matching figures for `Cc1cnc(C2CC=NN2C(=O)C23CC(Cn4ncc5cc(C#N)ccc54)(C2)C3)cn1` (centres unmarked) [Example 49, 1-((3-(5-(5-Methylpyrazin-2-yl)-4,5-dihydro-1H-pyrazole-1-carbonyl)-bicyclo[1.1.1]pentan-1-yl)methyl)-1H-indazole-5-carbonitrile]: 22 nM and 67 nM.
For `O=C(N1CC(F)CC1c1cccc(F)c1)C12CC(C(F)c3ccccc3)(C1)C2` (centres unmarked) [Example 41, (3-(Fluoro(phenyl)methyl)bicyclo[1.1.1]pentan-1-yl)-(4-fluoro-2-(3-fluorophenyl)pyrrolidin-1-yl)methanone], the IC50 at RIPK1 was determined as 31 nM; in test [1], 272 nM.
In the case of `N#Cc1ccc2c(cnn2CC23CC(C(=O)N4CCC4c4cccs4)(C2)C3)c1` (centres unmarked) [Example 255, 1-((3-(2-(thiophen-2-yl)-azetidine-1-carbonyl)bicyclo-[1.1.1]pentan-1-yl)methyl)-1H-indazole-5-carbonitrile], the IC50 on RIPK1 worked out at 49 nM; in test [1], 550 nM.
Turning to `N#Cc1ccc2c(cnn2CC23CC(C(=O)N4N=CCC4c4ccc5nccn5c4)(C2)C3)c1` (centres unmarked) [Example 258, 1-((3-(5-(imidazo[1,2-a]-pyridin-6-yl)-4,5-dihydro-1H-pyrazole-1-carbonyl)bicyclo-[1.1.1]pentan-1-yl)methyl)-1H-indazole-5-carbonitrile], the figures for the IC50 (at RIPK1; in test [1]) were 1010 nM and 3820 nM, respectively.
For `Cc1cncc(C2CC=NN2C(=O)C23CC(Cn4cc(C#N)cn4)(C2)C3)n1` (centres unmarked) [Example 169, 1-((3-(5-(6-methylpyrazin-2-yl)-4,5-dihydro-1H-pyrazole-1-carbonyl)bicyclo[1.1.1]-pentan-1-yl)methyl)-1H-pyrazole-4-carbonitrile], the IC50 at RIPK1 turned out to be 343 nM; in test [1], 3310 nM.
For the molecule `N#Cc1cnc(OCC23CC(C(=O)N4N=CC[C@H]4c4cc(F)cc(F)c4)(C2)C3)cn1` [Example 201, (S)-5-((3-(5-(3,5-difluorophenyl)-4,5-dihydro-1H-pyrazole-1-carbonyl)bicyclo[1.1.1]pentan-1-yl)methoxy)pyrazine-2-carbonitrile], on RIPK1 (enantiomers separated by SFC, assay not named), the “observed potency relative to the other enantiomer” value was “more potent isomer”. Also, in test [1], the IC50 turned out to be 7.1 nM.
In the case of `O=C(N1CC(F)CC1c1cccc(F)c1)C12CC(Cn3ncc4ncccc43)(C1)C2` (centres unmarked) [Example 48, (3-((1H-pyrazolo[4,3-b]pyridin-1-yl)methyl)bicyclo[1.1.1]pentan-1-yl)-(4-fluoro-2-(3-fluorophenyl)pyrrolidin-1-yl)methanone], the IC50 at RIPK1 worked out at 186 nM; in test [1] it was 1300 nM.
With `Cc1nn(CC23CC(C(=O)N4N=CCC4c4cncc(F)c4)(C2)C3)c2ccc(C#N)cc12` (centres unmarked) [Example 130, 1-((3-(5-(5-fluoropyridin-3-yl)-4,5-dihydro-1H-pyrazole-1-carbonyl)bicyclo[1.1.1]-pentan-1-yl)methyl)-3-mcthyl-1H-indazole-5-carbonitrile], the IC50 at RIPK1 is 238 nM; in test [1], 1240 nM.
In the case of `N#Cc1cccc(C2CC=NN2C(=O)C23CC(Cn4ncc5ncccc54)(C2)C3)c1` (centres unmarked) [Example 139, 3-(1-(3-((1H-pyrazolo[4,3-b]-pyridin-1-yl)methyl)bicyclo-[1.1.1]pentane-1-carbonyl)-4,5-dihydro-1H-pyrazol-5-yl)benzonitrile], the half-maximal inhibitory concentration (IC50) at RIPK1 turned out to be 95 nM; in test [1], 493 nM.
For the molecule `CC1=NN(C(=O)C23CC(Cn4cc(C#N)cn4)(C2)C3)C(c2cc(F)cc(F)c2)C1` (centres unmarked) [Example 47, 1-((3-(5-(3,5-difluorophenyl)-3-methyl-4,5-dihydro-1H-pyrazole-1-carbonyl)-bicyclo[1.1.1]pentan-1-yl)methyl)-1H-pyrazole-4-carbonitrile], the half-inhibitory concentration (IC50) is 93 nM at RIPK1 and 1110 nM in test [1].
For `O=C(N1N=CCC1c1cc(F)cc(F)c1)C12CC(COc3ccc(Br)cc3Cl)(C1)C2` (centres unmarked) [Example 330, (3-((4-bromo-2-chloro-phenoxy)methyl)bicyclo-[1.1.1]pentan-1-yl)(5-(3,5-difluorophenyl)-4,5-dihydro-1H-pyrazol-1-yl)methanone], the half-maximal inhibitory concentration (IC50) on RIPK1 was 11 nM; in test [1], 21 nM.
For `O=C(N1N=CCC1c1cc(F)cc(F)c1)C12CC(COc3cccc(F)c3Cl)(C1)C2` (centres unmarked) [Example 332, (3-((2-chloro-3-fluoro-phenoxy)methyl)bicyclo-[1.1.1]pentan-1-yl)(5-(3,5-difluorophenyl)-4,5-dihydro-1H-pyrazol-1-yl)methanone], the results for the IC50 (at RIPK1; in test [1]) were 19 nM and 33 nM, respectively.
On to `COc1ccc2cn(CC34CC(C(=O)N5N=CCC5c5cc(F)cc(F)c5)(C3)C4)nc2c1` (centres unmarked) [Example 57, (5-(3,5-difluorophenyl)-4,5-dihydro-1H-pyrazol-1-yl)(3-((6-methoxy-2H-indazol-2-yl)methyl)bicyclo[1.1.1]-pentan-1-yl)methanone], for which the 50% inhibitory concentration (IC50) was 32 nM at RIPK1 and 110 nM in test [1].
For `N#Cc1ccc(OCC23CC(C(=O)N4N=CCC4c4cc(F)cc(F)c4)(C2)C3)nc1` (centres unmarked) [Example 320, 6-((3-(5-(3,5-difluorophenyl)-4,5-dihydro-1H-pyrazole-1-carbonyl)bicyclo[1.1.1]pentan-1-yl)methoxy)nicotinonitrile], in that order: 19 nM and 30 nM.
For `O=C(N1N=CCC1c1cc(F)cc(F)c1)C12CC(Cn3ccn4nccc34)(C1)C2` (centres unmarked) [Example 158, (3-((1H-imidazo[1,2-b]-pyrazol-1-yl)methyl)-bicyclo[1.1.1]pentan-1-yl)(5-(3,5-difluorophenyl)-4,5-dihydro-1H-pyrazol-1-yl)methanone], in that order: 24 nM and 62 nM.
For `N#Cc1cncc(C2CC=NN2C(=O)C23CC(Cn4cc(C#N)cn4)(C2)C3)c1` (centres unmarked) [Example 168, 5-(1-(3-((4-cyano-1H-pyrazol-1-yl)methyl)-bicyclo[1.1.1]pentane-1-carbonyl)-4,5-dihydro-1H-pyrazol-5-yl)nicotinonitrile], the half-maximal inhibitory concentration (IC50) on RIPK1 worked out at 865 nM; in test [1], 6190 nM.
Consider `O=C(N1N=CCC1c1cc(F)cc(F)c1)C12CC(Cn3cc4ccncc4n3)(C1)C2` (centres unmarked) [Example 88, (3-((2H-pyrazolo[3,4-c]-pyridin-2-yl)methyl)bicyclo-[1.1.1]pentan-1-yl)(5-(3,5-difluorophenyl)-4,5-dihydro-1H-pyrazol-1-yl)methanone], for which the half-inhibitory concentration (IC50) on RIPK1 stood at 24 nM; in test [1], 94 nM.
Consider `N#Cc1ccc2c(cnn2CC23CC(C(=O)N4N=CC[C@H]4c4cc(F)cc(F)c4)(C2)C3)c1` [Example 253, (S)-1-((3-(5-(3,5-difluoro-phenyl)-4,5-dihydro-1H-pyrazole-1-carbonyl)bicyclo-[1.1.1]pentan-1-yl)methyl)-1H-indazole-5-carbonitrile], for which the IC50 on RIPK1 is 51 nM; in test [1], 479 nM.
In the case of `Cc1c2cc(C#N)ccc2nn1CC12CC(C(=O)N3N=CCC3c3cncc(F)c3)(C1)C2` (centres unmarked) [Example 129, 2-((3-(5-(5-fluoropyridin-3-yl)-4,5-dihydro-1H-pyrazole-1-carbonyl)bicyclo[1.1.1]-pentan-1-yl)methyl)-3-methyl-2H-indazole-5-carbonitrile], the IC50 on RIPK1 stood at 515 nM; in test [1], 3860 nM.
With `O=C(N1N=CCC1c1cc(F)cc(F)c1)C12CC(COc3ncc(F)cc3F)(C1)C2` (centres unmarked) [Example 321, (5-(3,5-difluorophenyl)-4,5-dihydro-1H-pyrazol-1-yl)(3-(((3,5-difluoropyridin-2-yl)-oxy)methyl)bicyclo[1.1.1]-pentan-1-yl)methanone], the 50% inhibitory concentration (IC50) at RIPK1 turned out to be 18 nM; in test [1], 45 nM.
Take `N#Cc1ccc2c(cnn2CC23CC(C(=O)N4N=CCC4c4cncc(F)c4)(C2)C3)c1` (centres unmarked) [Example 128, 1-((3-(5-(5-fluoropyridin-3-yl)-4,5-dihydro-1H-pyrazole-1-carbonyl)bicyclo[1.1.1]-pentan-1-yl)methyl)-1H-indazole-5-carbonitrile]: the IC50 came to 17 nM on RIPK1 and 48 nM in test [1].
In the case of `O=C(N1N=CCC1c1cc(F)cc(F)c1)C12CC(Cn3ncc4cccc(Cl)c43)(C1)C2` (centres unmarked) [Example 69, (3-((7-chloro-1H-indazol-1-yl)methyl)bicyclo[1.1.1]-pentan-1-yl)(5-(3,5-difluoro-phenyl)-4,5-dihydro-1H-pyrazol-1-yl)methanone], the values for the half-inhibitory concentration (IC50) (at RIPK1; in test [1]) were 22 nM and 44 nM, respectively.
Turning to `O=C(N1N=CCC1c1cc(F)cc(F)c1)C12CC(Cn3c(=O)[nH]c4ccccc43)(C1)C2` (centres unmarked) [Example 109, 1-((3-(5-(3,5-difluorophenyl)-4.5-dihydro-1H-pyrazole-1-carbonyl)bicyclo[1.1.1]-pentan-1-yl)methyl)-1,3-dihydro-2H-benzo[d]-imidazol-2-one], the results for the IC50 (on RIPK1; in test [1]) were 42 nM and 470 nM, respectively.

The values are drawn from patent publication US20250214942A1, “INHIBITORS OF RECEPTOR INTERACTING PROTEIN KINASE I FOR THE TREATMENT OF DISEASE” (Board of Regents, The University of Texas System, priority 2019, published 2025).
